In PubChem BioAssay AID2060612 (Molecular Pharmacology Branch, DTP, NCI, 2025):
Several values for one entry are separate records, joined by “and”; a condition that tells them apart may be missing. Equal values may be shown once.

Test system: 565232-114-T-J1-PDC complex spheroid viability
Assay: Anticancer human tumor 565232-114-T-J1-PDC patient-derived bladder carcinoma cell line growth inhibition [CLK]
Conditions: for viability, T/C: stronger effect = lower value
In short: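 Multi-cell-type spheroids combined patient-derived tumor cells with HUVEC endothelial cells and human mesenchymal stem cells. Paired agents were dosed in half-log steps down from about clinical Cmax, or from 10 microM where Cmax was unknown.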

[1] = curve of first compound, second compound 0.0316 µM
[2] = curve of first compound, second compound 0.1 µM
[3] = curve of first compound, second compound 0.316 µM
[4] = curve of first compound, second compound 1 µM
[5] = curve of first compound, second compound 3.16 µM
[6] = curve of first compound, second compound 10 µM
[7] = second compound 0.0316 µM, first compound 0.0316 µM
[8] = second compound 0.0316 µM, first compound 0.1 µM
[9] = second compound 0.0316 µM, first compound 0.316 µM
[10] = second compound 0.0316 µM, first compound 1 µM
[11] = second compound 0.0316 µM, first compound 3.16 µM
[12] = second compound 0.0316 µM, first compound 10 µM
[13] = second compound 0.1 µM, first compound 0.0316 µM
[14] = second compound 0.1 µM, first compound 0.1 µM
[15] = second compound 0.1 µM, first compound 0.316 µM
[16] = second compound 0.1 µM, first compound 1 µM
[17] = second compound 0.1 µM, first compound 3.16 µM
[18] = second compound 0.1 µM, first compound 10 µM
[19] = second compound 0.316 µM, first compound 0.0316 µM
[20] = second compound 0.316 µM, first compound 0.1 µM
[21] = second compound 0.316 µM, first compound 0.316 µM
[22] = second compound 0.316 µM, first compound 1 µM
[23] = second compound 0.316 µM, first compound 3.16 µM
[24] = second compound 0.316 µM, first compound 10 µM
[25] = second compound 1 µM, first compound 0.0316 µM
[26] = second compound 1 µM, first compound 0.1 µM
[27] = second compound 1 µM, first compound 0.316 µM
[28] = second compound 1 µM, first compound 1 µM
[29] = second compound 1 µM, first compound 3.16 µM
[30] = second compound 1 µM, first compound 10 µM
[31] = second compound 3.16 µM, first compound 0.0316 µM
[32] = second compound 3.16 µM, first compound 0.1 µM
[33] = second compound 3.16 µM, first compound 0.316 µM
[34] = second compound 3.16 µM, first compound 1 µM
[35] = second compound 3.16 µM, first compound 3.16 µM
[36] = second compound 3.16 µM, first compound 10 µM
[37] = second compound 10 µM, first compound 0.0316 µM
[38] = second compound 10 µM, first compound 0.1 µM
[39] = second compound 10 µM, first compound 0.316 µM
[40] = second compound 10 µM, first compound 1 µM
[41] = second compound 10 µM, first compound 3.16 µM
[42] = second compound 10 µM, first compound 10 µM
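Further: spheroids exposed to compounds for 7 days before readout.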
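Wherever viability, T/C is given: 100% = DMSO vehicle wells with luminescence normalized to vehicle control.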

SMILES: COC1C=CCC(C)C(C)S(=O)(=O)NC(=O)c2ccc3c(c2)N(CC2CCC21)CC1(CCCc2cc(Cl)ccc21)CO3 (stereo not given) + CNC(=O)c1ccc(Nc2nc(OC3CCCC3)c3c(-c4ccc5nc(C)oc5c4)c[nH]c3n2)c(OC)c1
- IC50 [1]: 695 nM
- IC50 [2]: < 31.6 nM
- IC50 [3]: < 31.6 nM
- IC50 [4]: < 31.6 nM
- IC50 [5]: < 31.6 nM
- IC50 [6]: < 31.6 nM
- viability, T/C [7]: 89.9%
- viability, T/C [8]: 103%
- viability, T/C [9]: 85.8%
- viability, T/C [10]: 33.2%
- viability, T/C [11]: 6.83%
- viability, T/C [12]: 3.49%
- viability, T/C [13]: 43.1%
- viability, T/C [14]: 36.9%
- viability, T/C [15]: 24.7%
- viability, T/C [16]: 19.2%
- viability, T/C [17]: 7.48%
- viability, T/C [18]: 5.14%
- viability, T/C [19]: 24.4%
- viability, T/C [20]: 19.1%
- viability, T/C [21]: 16.4%
- viability, T/C [22]: 9.76%
- viability, T/C [23]: 5.62%
- viability, T/C [24]: 3.86%
- viability, T/C [25]: 15.8%
- viability, T/C [26]: 14.5%
- viability, T/C [27]: 13.3%
- viability, T/C [28]: 7.06%
- viability, T/C [29]: 4.08%
- viability, T/C [30]: 2.86%
- viability, T/C [31]: 11.4%
- viability, T/C [32]: 11%
- viability, T/C [33]: 7.5%
- viability, T/C [34]: 4.35%
- viability, T/C [35]: 2.97%
- viability, T/C [36]: 3%
- viability, T/C [37]: 14.1%
- viability, T/C [38]: 9.12%
- viability, T/C [39]: 6.08%
- viability, T/C [40]: 5.45%
- viability, T/C [41]: 3.56%
- viability, T/C [42]: 3.09%

SMILES: O=C(c1cc(Cc2n[nH]c(=O)c3ccccc23)ccc1F)N1CCN(C(=O)C2CC2)CC1 + CNC(=O)c1ccc(Nc2nc(OC3CCCC3)c3c(-c4ccc5nc(C)oc5c4)c[nH]c3n2)c(OC)c1
- IC50 [1]: > 10000 nM
- IC50 [2]: 1500 nM
- IC50 [3]: < 31.6 nM
- IC50 [4]: < 31.6 nM
- IC50 [5]: < 31.6 nM
- IC50 [6]: < 31.6 nM
- viability, T/C [7]: 81.7%
- viability, T/C [8]: 85.9%
- viability, T/C [9]: 87.8%
- viability, T/C [10]: 82.8%
- viability, T/C [11]: 104%
- viability, T/C [12]: 64.8%
- viability, T/C [13]: 49%
- viability, T/C [14]: 52.6%
- viability, T/C [15]: 63.5%
- viability, T/C [16]: 48.8%
- viability, T/C [17]: 45.7%
- viability, T/C [18]: 34%
- viability, T/C [19]: 36.4%
- viability, T/C [20]: 40.3%
- viability, T/C [21]: 30.4%
- viability, T/C [22]: 32.4%
- viability, T/C [23]: 33.4%
- viability, T/C [24]: 30.2%
- viability, T/C [25]: 24%
- viability, T/C [26]: 26.8%
- viability, T/C [27]: 23.2%
- viability, T/C [28]: 22.8%
- viability, T/C [29]: 27.1%
- viability, T/C [30]: 24.8%
- viability, T/C [31]: 22.5%
- viability, T/C [32]: 23.4%
- viability, T/C [33]: 21.3%
- viability, T/C [34]: 21.7%
- viability, T/C [35]: 22.4%
- viability, T/C [36]: 19.3%
- viability, T/C [37]: 23.2%
- viability, T/C [38]: 25.5%
- viability, T/C [39]: 16.5%
- viability, T/C [40]: 22.3%
- viability, T/C [41]: 21%
- viability, T/C [42]: 18.2%

SMILES: COc1cccc2c1C(=O)c1c(O)c3c(c(O)c1C2=O)CC(O)(C(=O)CO)CC3OC1CC(N)C(O)C(C)O1 (stereo not given) + CNC(=O)c1ccc(Nc2nc(OC3CCCC3)c3c(-c4ccc5nc(C)oc5c4)c[nH]c3n2)c(OC)c1
- IC50 [1]: 115 nM
- IC50 [2]: < 31.6 nM
- IC50 [3]: < 31.6 nM
- IC50 [4]: < 31.6 nM
- IC50 [5]: < 31.6 nM
- IC50 [6]: < 31.6 nM
- viability, T/C [7]: 96.7%
- viability, T/C [8]: 55.5%
- viability, T/C [9]: 10%
- viability, T/C [10]: 0.25%
- viability, T/C [11]: 0.24%
- viability, T/C [12]: 0.28%
- viability, T/C [13]: 44.4%
- viability, T/C [14]: 22.9%
- viability, T/C [15]: 7.66%
- viability, T/C [16]: 0.28%
- viability, T/C [17]: 0.22%
- viability, T/C [18]: 0.23%
- viability, T/C [19]: 21.8%
- viability, T/C [20]: 18.6%
- viability, T/C [21]: 5.6%
- viability, T/C [22]: 0.86%
- viability, T/C [23]: 0.19%
- viability, T/C [24]: 1.3%
- viability, T/C [25]: 15.9%
- viability, T/C [26]: 12.4%
- viability, T/C [27]: 3.59%
- viability, T/C [28]: 0.42%
- viability, T/C [29]: 0.14%
- viability, T/C [30]: 0.26%
- viability, T/C [31]: 12.7%
- viability, T/C [32]: 9.58%
- viability, T/C [33]: 2.15%
- viability, T/C [34]: 0.1%
- viability, T/C [35]: 0.69%
- viability, T/C [36]: 0.49%
- viability, T/C [37]: 13.7%
- viability, T/C [38]: 9.24%
- viability, T/C [39]: 3.57%
- viability, T/C [40]: 0.73%
- viability, T/C [41]: 1.86%
- viability, T/C [42]: 0.29%

SMILES: O=C(c1cc(Cc2n[nH]c(=O)c3ccccc23)ccc1F)N1CCN(C(=O)C2CC2)CC1
- viability, T/C (compound 0.0316 µM): 128% and 92%
- viability, T/C (compound 0.1 µM): 96.3% and 94.3%
- viability, T/C (compound 0.316 µM): 113% and 94.3%
- viability, T/C (compound 1 µM): 90.7% and 83.8%
- viability, T/C (compound 3.16 µM): 95% and 117%
- viability, T/C (compound 10 µM): 122% and 58.1%
- IC50 (curve of compound): > 10000 nM

SMILES: CC(CO)NC(=O)c1cc(-c2ccc(Cl)cc2)nn(-c2cnn(C)c2)c1=O (stereo not given)
- viability, T/C (compound 0.0316 µM): 97.3% and 115%
- viability, T/C (compound 0.1 µM): 85.3% and 77.5%
- viability, T/C (compound 0.316 µM): 83.9% and 109%
- viability, T/C (compound 1 µM): 90.8% and 89.4%
- viability, T/C (compound 3.16 µM): 94.1% and 97.8%
- viability, T/C (compound 10 µM): 90.5% and 91.3%
- IC50 (curve of compound): > 10000 nM
